# Measurements reported in patent publication US12377101B2, “Combination therapies” (Mirati Therapeutics, Inc., priority 2018, dated 2025).
# Marks after values point to notes of the source that are not given here.
# What was measured:
# Assay type in all cases: in vivo, nude/nude mice
# SW1573 cells = test: SW1573 tumor bearing mice, single agents and combination; settings: for tumor growth inhibition: Day 22, Compound 478 100 mg/kg or RMC-4550 30 mg/kg p.o. daily; for Average Tumor Volume: Compound 478 100 mg/kg, RMC-4550 30 mg/kg
# Experimental: (§1) Immunocompromised nude/nude mice are inoculated in the right hind flank with cells or patient derived tumor samples harboring a KRas G12C mutation. When tumor volumes reach between 200-400 mm^3 in size, the mice are divided into four groups of 5-12 mice each. The first group is administered vehicle only. […] The fourth group is administered the single agent dose of the KRas G12C inhibitor in combination with the single agent dose of the SHP-2 inhibitor. […] Tumor volumes are measured using a caliper every two-three days and tumor volumes are calculated by the formula: 0.5×[…].
# (§2) 20 nude/nude mice per study were inoculated in the right hind limb with 5×10^6 SW1573 cells, KYSE410 cells or H358 cells.
# KYSE410 cells = test: KYSE410 tumor bearing mice, single agents and combination; settings: for tumor growth inhibition: Day 22, Compound 478 100 mg/kg or RMC-4550 30 mg/kg p.o. daily; for Average Tumor Volume: Compound 478 100 mg/kg, RMC-4550 30 mg/kg
# Experimental: as §1, §2
# H358 cells = test: H358 tumor bearing mice, single agents and combination
# Experimental: as §1, §2
# H2122 cells = test: H2122 tumor bearing mice, single agents and combination; settings: for tumor growth inhibition: Day 29, Compound 478 100 mg/kg or RMC-4550 30 mg/kg p.o. daily; for Average Tumor Volume: Compound 478 100 mg/kg, RMC-4550 30 mg/kg
# Experimental: as §1
# Similarly, 25 nude/nude mice were inoculated in the right hind limb with 5×10^6 H2122 cells.
# [1] = Study Day 0, p.o. daily, 5 mice
# [2] = Study Day 0, p.o. daily, Compound 478 100 mg/kg, RMC-4550 30 mg/kg, 5 mice
# [3] = Study Day 4, p.o. daily, Compound 478 100 mg/kg, RMC-4550 30 mg/kg
# [4] = Study Day 6, p.o. daily, Compound 478 100 mg/kg, RMC-4550 30 mg/kg
# [5] = Study Day 8, p.o. daily, Compound 478 100 mg/kg, RMC-4550 30 mg/kg
# [6] = Study Day 12, p.o. daily, Compound 478 100 mg/kg, RMC-4550 30 mg/kg
# [7] = Study Day 15, p.o. daily, Compound 478 100 mg/kg, RMC-4550 30 mg/kg
# [8] = Study Day 18, p.o. daily, Compound 478 100 mg/kg, RMC-4550 30 mg/kg
# [9] = Study Day 20, p.o. daily, Compound 478 100 mg/kg, RMC-4550 30 mg/kg
# [10] = Study Day 22, p.o. daily, Compound 478 100 mg/kg, RMC-4550 30 mg/kg, RMC-4550 single agent: dosing was stopped after Day 22
smiles,measurement,setting,value
Cc1nc(N2CCC3(CC2)CO[C@@H](C)[C@H]3N)c(CO)nc1-c1cccc(Cl)c1Cl [RMC-4550],tumor growth inhibition,SW1573 cells,68%
same,Average Tumor Volume,SW1573 cells; [1],336 mm^3
same,Average Tumor Volume,"SW1573 cells; Study Day 2, p.o. daily",280 mm^3
same,Average Tumor Volume,"SW1573 cells; Study Day 4, p.o. daily",286 mm^3
same,Average Tumor Volume,"SW1573 cells; Study Day 7, p.o. daily",336 mm^3
same,Average Tumor Volume,"SW1573 cells; Study Day 9, p.o. daily",305 mm^3
same,Average Tumor Volume,"SW1573 cells; Study Day 11, p.o. daily",326 mm^3
same,Average Tumor Volume,"SW1573 cells; Study Day 14, p.o. daily",418 mm^3
same,Average Tumor Volume,"SW1573 cells; Study Day 16, p.o. daily",421 mm^3
same,Average Tumor Volume,"SW1573 cells; Study Day 18, p.o. daily",375 mm^3
same,Average Tumor Volume,"SW1573 cells; Study Day 21, p.o. daily",392 mm^3
same,Average Tumor Volume,"SW1573 cells; Study Day 22, p.o. daily",510 mm^3
same,tumor growth inhibition,KYSE410 cells,90%
same,Average Tumor Volume,KYSE410 cells; [1],314 mm^3
same,Average Tumor Volume,"KYSE410 cells; Study Day 2, p.o. daily",311 mm^3
same,Average Tumor Volume,"KYSE410 cells; Study Day 4, p.o. daily",316 mm^3
same,Average Tumor Volume,"KYSE410 cells; Study Day 7, p.o. daily",299 mm^3
same,Average Tumor Volume,"KYSE410 cells; Study Day 9, p.o. daily",316 mm^3
same,Average Tumor Volume,"KYSE410 cells; Study Day 11, p.o. daily",309 mm^3
same,Average Tumor Volume,"KYSE410 cells; Study Day 14, p.o. daily",309 mm^3
same,Average Tumor Volume,"KYSE410 cells; Study Day 18, p.o. daily",303 mm^3
same,Average Tumor Volume,"KYSE410 cells; Study Day 21, p.o. daily",372 mm^3
same,Average Tumor Volume,"KYSE410 cells; Study Day 22, p.o. daily",377 mm^3
same,tumor growth inhibition,"H358 cells; Day 22, RMC-4550 30 mg/kg p.o. daily",22%
same,Average Tumor Volume,H358 cells; [2],333 mm^3
same,Average Tumor Volume,H358 cells; [3],336 mm^3
same,Average Tumor Volume,H358 cells; [4],343 mm^3
same,Average Tumor Volume,H358 cells; [5],372 mm^3
same,Average Tumor Volume,H358 cells; [6],388 mm^3
same,Average Tumor Volume,H358 cells; [7],399 mm^3
same,Average Tumor Volume,H358 cells; [8],422 mm^3
same,Average Tumor Volume,H358 cells; [9],454 mm^3
same,Average Tumor Volume,H358 cells; [10],492‡ mm^3
same,tumor growth inhibition,H2122 cells,47%
same,Average Tumor Volume,H2122 cells; [1],350 mm^3
same,Average Tumor Volume,"H2122 cells; Study Day 4, p.o. daily",515 mm^3
same,Average Tumor Volume,"H2122 cells; Study Day 6, p.o. daily",578 mm^3
same,Average Tumor Volume,"H2122 cells; Study Day 8, p.o. daily",614 mm^3
same,Average Tumor Volume,"H2122 cells; Study Day 11, p.o. daily",683 mm^3
same,Average Tumor Volume,"H2122 cells; Study Day 13, p.o. daily",750 mm^3
same,Average Tumor Volume,"H2122 cells; Study Day 15, p.o. daily",856 mm^3
same,Average Tumor Volume,"H2122 cells; Study Day 18, p.o. daily",880 mm^3
same,Average Tumor Volume,"H2122 cells; Study Day 21, p.o. daily",916 mm^3
same,Average Tumor Volume,"H2122 cells; Study Day 24, p.o. daily",1026 mm^3
same,Average Tumor Volume,"H2122 cells; Study Day 27, p.o. daily",1137 mm^3
same,Average Tumor Volume,"H2122 cells; Study Day 29, p.o. daily",1166 mm^3
C=C(F)C(=O)N1CCN(c2nc(OC[C@@H]3CCCN3C)nc3c2CCN(c2cccc4cccc(Cl)c24)C3)C[C@@H]1CC#N [Compound 478],tumor growth inhibition,SW1573 cells,81%
same,Average Tumor Volume,SW1573 cells; [1],335 mm^3
same,Average Tumor Volume,"SW1573 cells; Study Day 2, p.o. daily",281 mm^3
same,Average Tumor Volume,"SW1573 cells; Study Day 4, p.o. daily",318 mm^3
same,Average Tumor Volume,"SW1573 cells; Study Day 9, p.o. daily",336 mm^3
same,Average Tumor Volume,"SW1573 cells; Study Day 14, p.o. daily",363 mm^3
same,Average Tumor Volume,"SW1573 cells; Study Day 21, p.o. daily",419 mm^3
same,Average Tumor Volume,"SW1573 cells; Study Day 22, p.o. daily",433 mm^3
same,tumor growth inhibition,KYSE410 cells,93%
same,Average Tumor Volume,KYSE410 cells; [1],312 mm^3
same,Average Tumor Volume,"KYSE410 cells; Study Day 2, p.o. daily",320 mm^3
same,Average Tumor Volume,"KYSE410 cells; Study Day 4, p.o. daily",302 mm^3
same,Average Tumor Volume,"KYSE410 cells; Study Day 7, p.o. daily",281 mm^3
same,Average Tumor Volume,"KYSE410 cells; Study Day 9, p.o. daily",265 mm^3
same,Average Tumor Volume,"KYSE410 cells; Study Day 11, p.o. daily",277 mm^3
same,Average Tumor Volume,"KYSE410 cells; Study Day 14, p.o. daily",340 mm^3
same,Average Tumor Volume,"KYSE410 cells; Study Day 18, p.o. daily",349 mm^3
same,Average Tumor Volume,"KYSE410 cells; Study Day 21, p.o. daily",384 mm^3
same,Average Tumor Volume,"KYSE410 cells; Study Day 22, p.o. daily",359 mm^3
same,tumor regression,"H358 cells; Day 22, Compound 478 100 mg/kg, alone or with RMC-4550 30 mg/kg, p.o. daily",68%
same,Average Tumor Volume,H358 cells; [2],335 mm^3
same,Average Tumor Volume,H358 cells; [3],277 mm^3
same,Average Tumor Volume,H358 cells; [4],244 mm^3
same,Average Tumor Volume,H358 cells; [5],200 mm^3
same,Average Tumor Volume,H358 cells; [6],156 mm^3
same,Average Tumor Volume,H358 cells; [7],133 mm^3
same,Average Tumor Volume,H358 cells; [8],120 mm^3
same,Average Tumor Volume,H358 cells; [9],113 mm^3
same,Average Tumor Volume,H358 cells; [10],109 mm^3
same,Average Tumor Volume,"H358 cells; Study Day 25, p.o. daily, Compound 478 100 mg/kg, RMC-4550 30 mg/kg",90 mm^3
same,Average Tumor Volume,"H358 cells; Study Day 27, p.o. daily, Compound 478 100 mg/kg, RMC-4550 30 mg/kg",92 mm^3
same,Average Tumor Volume,"H358 cells; Study Day 29, Compound 478 100 mg/kg, RMC-4550 30 mg/kg p.o.",81 mm^3
same,Average Tumor Volume,"H358 cells; Study Day 32, Compound 478 100 mg/kg, RMC-4550 30 mg/kg p.o.",82 mm^3
same,Average Tumor Volume,"H358 cells; Study Day 34, Compound 478 100 mg/kg, RMC-4550 30 mg/kg p.o.",84 mm^3
same,Average Tumor Volume,"H358 cells; Study Day 36, Compound 478 100 mg/kg, RMC-4550 30 mg/kg p.o.",81 mm^3
same,Average Tumor Volume,"H358 cells; Study Day 39, Compound 478 100 mg/kg, RMC-4550 30 mg/kg p.o.",73 mm^3
same,Average Tumor Volume,"H358 cells; Study Day 41, Compound 478 100 mg/kg, RMC-4550 30 mg/kg p.o.",58 mm^3
same,tumor growth inhibition,H2122 cells,93%
same,Average Tumor Volume,"H2122 cells; Study Day 11, p.o. daily",382 mm^3
same,Average Tumor Volume,"H2122 cells; Study Day 21, p.o. daily",430 mm^3
